Data from US12054466B2, “Compounds for the treatment of clostridium difficile infection” (University of Notre Dame du Lac, priority 2016, dated 2024).
In brackets after ≈: the same amount, converted by molar mass. Where two headings read alike, the source gives them in different places.

How the values were obtained:
Assay type in all cases: cell-based
[1] = system: Bacteroides fragilis HM-709; assay: MIC against common gut bacteria; conditions: HM709; Bacteroides fragilis HM-709; read-out: MIC
[2] = system: C. difficile BAA-1870; assay: MIC, broth microdilution; conditions: Clostridioides difficile, BAA1870, C. difficile BAA-1870 (NAP1, ribotype 27)
[3] = system: Bifidobacterium longum HM-846; assay: MIC against common gut bacteria; conditions: HM846; Bifidobacterium longum HM-846; read-out: MIC
[4] = system: Bacteroides ovatus; assay: MIC against common gut bacteria; conditions: read-out: MIC
[5] = system: C. difficile BAA-1812; assay: MIC, broth microdilution; conditions: Clostridioides difficile, BAA1812, C. difficile BAA-1812
[6] = system: Eubacterium sp. HM-178; assay: MIC against common gut bacteria; conditions: SP.HM178
[7] = system: C. difficile NR49310; assay: MIC, broth microdilution; conditions: Clostridioides difficile, C. difficile NR49310 (NAP7, ribotype 078)
[8] = system: Lactobacillus reuteri HM-102; assay: MIC against common gut bacteria; conditions: for MIC: Limosilactobacillus reuteri, HM102, Lactobacillus reuteri HM-102, read-out: MIC
[9] = system: Fusobacterium nucleatum HM-992; assay: MIC against common gut bacteria; conditions: HM992; Fusobacterium nucleatum HM-992; read-out: MIC
[10] = system: C. difficile BAA-1804; assay: MIC, broth microdilution; conditions: Clostridioides difficile, BAA1804, C. difficile BAA-1804
[11] = system: C. difficile BAA-1801; assay: MIC, broth microdilution; conditions: Clostridioides difficile, BAA1801, C. difficile BAA-1801 (nontoxigenic)
[12] = system: C. difficile NR49294; assay: MIC, broth microdilution; conditions: Clostridioides difficile, C. difficile NR49294 (NAP4, ribotype 014)
[13] = system: Corynebacterium sp. HM-784; assay: MIC against common gut bacteria; conditions: SP.HM784; Corynebacterium sp. HM-784; incubated aerobically; read-out: MIC
Protocol: Minimally-inhibitory concentrations. MICs for C. difficile strains and the common gut bacteria were determined using broth microdilution techniques as reported earlier using brucella broth supplemented with hemin and vitamin K or supplemented BHIS broth (Babakhani et al., J Antimicrob Chemother 2013, 68(3), 515). Lactobacillus MRS broth was used for lactobacillus strains. […] All incubations unless specified otherwise were carried out at 24 or 48 h at 37° C. in an anaerobic chamber (Whitley DG250 workstation, Microbiology International, Frederick, MD). Corynebacterium and lactobacillus species were incubated aerobically.

[14] = system: Veillonella sp. HM-49; assay: MIC against common gut bacteria; conditions: for MIC: SP.HM49, Veillonella sp. HM-49, read-out: MIC
[15] = system: C. difficile NR49318; assay: MIC, broth microdilution; conditions: Clostridioides difficile, C. difficile NR49318 (NAP11, ribotype 106)
[16] = system: Lactobacillus gasseri HM-644; assay: MIC against common gut bacteria; conditions: for MIC: HM644, Lactobacillus gasseri HM-644, read-out: MIC
[17] = system: C. difficile BAA-1803; assay: MIC, broth microdilution; conditions: Clostridioides difficile, BAA1803, C. difficile BAA-1803 (NAP1, ribotype 027)
[18] = system: Bacteroides eggerthii; assay: MIC against common gut bacteria; conditions: read-out: MIC
[19] = system: Bacteroides caccae; assay: MIC against common gut bacteria; conditions: read-out: MIC
[20] = system: C. difficile NR49305; assay: MIC, broth microdilution; conditions: Clostridioides difficile, C. difficile NR49305 (NAP6, ribotype 002)
[21] = system: Bacteroides fragilis; assay: MIC against common gut bacteria; conditions: read-out: MIC
[22] = system: C. difficile NR49302; assay: MIC, broth microdilution; conditions: Clostridioides difficile, C. difficile NR49302 (NAP4, ribotype 020)
[23] = system: C. difficile BAA-1814; assay: MIC, broth microdilution; conditions: Clostridioides difficile, BAA1814, C. difficile BAA-1814
[24] = system: C. difficile ATCC43598; assay: MIC, broth microdilution; conditions: Clostridioides difficile, C. difficile ATCC43598
[25] = system: Bacteroides vulgatus; assay: MIC against common gut bacteria; conditions: Phocaeicola vulgatus; Bacteroides vulgatus; read-out: MIC
[26] = system: C. difficile ATCC43255; assay: MIC, broth microdilution; conditions: Clostridioides difficile, C. difficile ATCC43255
[27] = system: C. difficile NR49292; assay: MIC, broth microdilution; conditions: Clostridioides difficile, C. difficile NR49292 (NAP2, ribotype 001_072)

CCc1c(Cl)c(O)c(Cl)c(O)c1C(=O)O[C@H]1[C@H](O)[C@H](OC)[C@H](OC/C2=C\C=C\C[C@H](O)/C(C)=C/[C@H](CC)[C@@H](O[C@@H]3OC(C)(C)[C@@H](OC(=O)C(C)C)[C@H](O)[C@@H]3O)/C(C)=C/C(C)=C/C[C@@H]([C@@H](C)O)OC2=O)O[C@@H]1C [fidaxomicin]
MIC [1]: > 32 µg/mL | MIC ([2]; 24 h, read-out: MIC at 24 h): < 0.25 µg/mL | MIC ([2]; 48 h, read-out: MIC at 48 h): 0.25 µg/mL (≈ 0.236 µM) | MIC [3]: < 0.01 µg/mL | MIC [4]: > 32 µg/mL | MIC ([5]; 24 h, read-out: MIC at 24 h): 0.015 µg/mL (≈ 0.0142 µM) | MIC ([5]; 48 h, read-out: MIC at 48 h): 0.125 µg/mL (≈ 0.118 µM) | MIC [6]: 16 µg/mL (≈ 15.1 µM) | MIC ([7]; 24 h, read-out: MIC at 24 h): ≤ 0.01 µg/mL | MIC ([7]; 48 h, read-out: MIC at 48 h): ≤ 0.01 µg/mL | MIC [8]: > 32 µg/mL | MIC [9]: < 0.06 µg/mL | MIC ([10]; 24 h, read-out: MIC at 24 h): < 0.25 µg/mL | MIC ([10]; 48 h, read-out: MIC at 48 h): < 0.25 µg/mL | MIC ([11]; 24 h, read-out: MIC at 24 h): 0.03 µg/mL (≈ 0.0284 µM) | MIC ([11]; 48 h, read-out: MIC at 48 h): 0.125 µg/mL (≈ 0.118 µM) | MIC ([12]; 24 h, read-out: MIC at 24 h): ≤ 0.01 µg/mL | MIC ([12]; 48 h, read-out: MIC at 48 h): 0.01 µg/mL (≈ 0.00945 µM) | MIC [13]: < 0.06 µg/mL | MIC [14]: 8 µg/mL (≈ 7.56 µM) | MIC ([15]; 24 h, read-out: MIC at 24 h): 0.25 µg/mL (≈ 0.236 µM) | MIC ([15]; 48 h, read-out: MIC at 48 h): 0.125 µg/mL (≈ 0.118 µM) | MIC [16]: 2 µg/mL (≈ 1.89 µM) | MIC ([17]; 24 h, read-out: MIC at 24 h): 0.5 µg/mL (≈ 0.473 µM) | MIC ([17]; 48 h, read-out: MIC at 48 h): 1 µg/mL (≈ 0.945 µM) | MIC [18]: > 32 µg/mL | MIC [19]: > 32 µg/mL | MIC ([20]; 24 h, read-out: MIC at 24 h): 0.01 µg/mL (≈ 0.00945 µM) | MIC ([20]; 48 h, read-out: MIC at 48 h): 0.01 µg/mL (≈ 0.00945 µM) | MIC [21]: > 32 µg/mL | MIC ([22]; 24 h, read-out: MIC at 24 h): 0.03 µg/mL (≈ 0.0284 µM) | MIC ([22]; 48 h, read-out: MIC at 48 h): 0.03 µg/mL (≈ 0.0284 µM) | MIC ([23]; 24 h, read-out: MIC at 24 h): ≤ 0.01 µg/mL | MIC ([23]; 48 h, read-out: MIC at 48 h): 0.03 µg/mL (≈ 0.0284 µM) | MIC ([24]; 24 h, read-out: MIC at 24 h): 0.01 µg/mL (≈ 0.00945 µM) | MIC ([24]; 48 h, read-out: MIC at 48 h): 0.01 µg/mL (≈ 0.00945 µM) | MIC [25]: > 32 µg/mL | MIC ([26]; 24 h, read-out: MIC at 24 h): 0.01 µg/mL (≈ 0.00945 µM) | MIC ([26]; 48 h, read-out: MIC at 48 h): 0.01 µg/mL (≈ 0.00945 µM) | MIC ([27]; 24 h, read-out: MIC at 24 h): 0.25 µg/mL (≈ 0.236 µM) | MIC ([27]; 48 h, read-out: MIC at 48 h): 0.5 µg/mL (≈ 0.473 µM)

Oc1ccc(-c2nc(-c3ccc(OC4CCCC4)cc3)no2)cc1 [Compound 2]
MIC [1]: 1 µg/mL (≈ 3.1 µM) | MIC ([2]; 24 h, read-out: MIC at 24 h): 2 µg/mL (≈ 6.2 µM) | MIC ([2]; 48 h, read-out: MIC at 48 h): 2 µg/mL (≈ 6.2 µM) | MIC [3]: 1 µg/mL (≈ 3.1 µM) | MIC [4]: 2 µg/mL (≈ 6.2 µM) | MIC ([5]; 24 h, read-out: MIC at 24 h): 2 µg/mL (≈ 6.2 µM) | MIC ([5]; 48 h, read-out: MIC at 48 h): 2 µg/mL (≈ 6.2 µM) | MIC [6]: 4 µg/mL (≈ 12.4 µM) | MIC ([7]; 24 h, read-out: MIC at 24 h): 2 µg/mL (≈ 6.2 µM) | MIC ([7]; 48 h, read-out: MIC at 48 h): 4 µg/mL (≈ 12.4 µM) | MIC [8]: > 128 µg/mL | Activity against Lactobacillus reuteri ([8]; in words): not active | MIC [9]: 2 µg/mL (≈ 6.2 µM) | MIC ([10]; 24 h, read-out: MIC at 24 h): 2 µg/mL (≈ 6.2 µM) | MIC ([10]; 48 h, read-out: MIC at 48 h): 2 µg/mL (≈ 6.2 µM) | MIC ([11]; 24 h, read-out: MIC at 24 h): 2 µg/mL (≈ 6.2 µM) | MIC ([11]; 48 h, read-out: MIC at 48 h): 2 µg/mL (≈ 6.2 µM) | MIC ([12]; 24 h, read-out: MIC at 24 h): 1 µg/mL (≈ 3.1 µM) | MIC ([12]; 48 h, read-out: MIC at 48 h): 2 µg/mL (≈ 6.2 µM) | MIC [13]: 0.5 µg/mL (≈ 1.55 µM) | MIC [14]: > 128 µg/mL | Activity against Veillonella sp. ([14]; in words): not active | MIC ([15]; 24 h, read-out: MIC at 24 h): 2 µg/mL (≈ 6.2 µM) | MIC ([15]; 48 h, read-out: MIC at 48 h): 4 µg/mL (≈ 12.4 µM) | MIC [16]: > 128 µg/mL | Activity against Lactobacillus gasseri ([16]; in words): not active | MIC ([17]; 24 h, read-out: MIC at 24 h): 1 µg/mL (≈ 3.1 µM) | MIC ([17]; 48 h, read-out: MIC at 48 h): 2 µg/mL (≈ 6.2 µM) | MIC [18]: 1 µg/mL (≈ 3.1 µM) | MIC [19]: 2 µg/mL (≈ 6.2 µM) | MIC ([20]; 24 h, read-out: MIC at 24 h): 2 µg/mL (≈ 6.2 µM) | MIC ([20]; 48 h, read-out: MIC at 48 h): 2 µg/mL (≈ 6.2 µM) | MIC [21]: 2 µg/mL (≈ 6.2 µM) | MIC ([22]; 24 h, read-out: MIC at 24 h): 2 µg/mL (≈ 6.2 µM) | MIC ([22]; 48 h, read-out: MIC at 48 h): 2 µg/mL (≈ 6.2 µM) | MIC ([23]; 24 h, read-out: MIC at 24 h): 2 µg/mL (≈ 6.2 µM) | MIC ([23]; 48 h, read-out: MIC at 48 h): 2 µg/mL (≈ 6.2 µM) | MIC ([24]; 24 h, read-out: MIC at 24 h): 1 µg/mL (≈ 3.1 µM) | MIC ([24]; 48 h, read-out: MIC at 48 h): 2 µg/mL (≈ 6.2 µM) | MIC [25]: 2 µg/mL (≈ 6.2 µM) | MIC ([26]; 24 h, read-out: MIC at 24 h): 2 µg/mL (≈ 6.2 µM) | MIC ([26]; 48 h, read-out: MIC at 48 h): 2 µg/mL (≈ 6.2 µM) | MIC ([27]; 24 h, read-out: MIC at 24 h): 1 µg/mL (≈ 3.1 µM) | MIC ([27]; 48 h, read-out: MIC at 48 h): 2 µg/mL (≈ 6.2 µM)
